Source: ChEMBL document CHEMBL4619786, “Discovery of Novel Resorcinol Dibenzyl Ethers Targeting the Programmed Cell Death-1/Programmed Cell Death-Ligand 1 Interaction as Potential Anticancer Agents” (J Med Chem, 2020)

System: A549
Assay: Cytotoxicity against human A549 cells assessed as reduction in cell viability measured after 48 hrs by MTT assay
Format: functional, cell-based
Conditions: A549, 48 h

| Compound | IC50 |
| --- | --- |
| Cc1c(COc2cc(OCc3cccc(C#N)c3)c(CN3CCC(O)C3)cc2Cl)cccc1-c1ccc2c(c1)OCCO2 (stereo unspecified) | 4200 nM |

System: MCF7
Assay: Cytotoxicity against human MCF7 cells assessed as reduction in cell viability measured after 48 hrs by MTT assay
Format: functional, cell-based
Conditions: MCF7, 48 h

| Compound | IC50 |
| --- | --- |
| Cc1c(COc2cc(OCc3cccc(C#N)c3)c(CN3CCC(O)C3)cc2Cl)cccc1-c1ccc2c(c1)OCCO2 (stereo unspecified) | 4400 nM |

System: B16-F10
Assay: Cytotoxicity against mouse B16/F10 cells assessed as reduction in cell viability measured after 48 hrs by MTT assay
Format: functional, cell-based
Conditions: B16-F10, 48 h

| Compound | IC50 |
| --- | --- |
| Cc1c(COc2cc(OCc3cccc(C#N)c3)c(CN3CCC(O)C3)cc2Cl)cccc1-c1ccc2c(c1)OCCO2 (stereo unspecified) | 2300 nM |

Target: Programmed cell death protein 1/Programmed cell death 1 ligand 1 (Homo sapiens, UniProt Q9NZQ7)
Sequence (Q15116 whole entry): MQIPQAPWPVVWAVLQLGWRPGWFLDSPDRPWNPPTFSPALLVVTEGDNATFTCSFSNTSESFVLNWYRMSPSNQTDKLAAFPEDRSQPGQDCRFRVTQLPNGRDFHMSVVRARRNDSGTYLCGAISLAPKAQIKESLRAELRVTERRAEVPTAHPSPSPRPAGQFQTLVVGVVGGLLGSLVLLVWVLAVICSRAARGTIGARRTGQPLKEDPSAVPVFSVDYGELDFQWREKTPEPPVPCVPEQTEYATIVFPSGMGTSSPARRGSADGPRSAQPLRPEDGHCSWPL
Sequence (Q9NZQ7 whole entry): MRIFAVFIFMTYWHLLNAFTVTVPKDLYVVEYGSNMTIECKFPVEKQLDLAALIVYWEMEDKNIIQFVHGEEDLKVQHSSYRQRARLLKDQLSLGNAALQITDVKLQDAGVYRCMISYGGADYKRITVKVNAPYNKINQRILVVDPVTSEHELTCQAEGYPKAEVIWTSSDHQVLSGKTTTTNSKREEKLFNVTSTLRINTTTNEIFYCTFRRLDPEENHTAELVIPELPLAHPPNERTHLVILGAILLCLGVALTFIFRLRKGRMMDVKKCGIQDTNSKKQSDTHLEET
Assay: Inhibition of human PD1/PDL1 protein-protein interaction by HTRF assay
Format: protein-complex assay
Conditions: not given

| Compound | IC50 |
| --- | --- |
| CC(=O)N1CCN(Cc2ccc3oc(-c4cccc(-c5ccc6c(c5)OCCO6)c4C)cc(=O)c3c2)CC1 | > 10000 nM |
| Cc1c(COc2cc(OCc3cccc(C#N)c3)c(CN3CCN(CC4CC4)CC3)cc2Cl)cccc1-c1ccc2c(c1)OCCO2 | > 1000 nM |
| Cc1c(COc2cc(OCc3cccc(C#N)c3)c(CN3CC(O)C3)cc2Cl)cccc1-c1ccccc1 | > 100 nM |
| Cc1c(COc2cc(OCc3cccc(C#N)c3)c(CN3CC[C@H](O)C3)cc2Cl)cccc1-c1ccccc1 | 10 to 100 nM |
| Cc1c(COc2cc(OCc3cccc(C#N)c3)c(CN3CCC(O)C3)cc2Cl)cccc1-c1ccc2c(c1)OCCO2 (stereo unspecified) | 12.9 nM |
| CCN1CCN(Cc2ccc(O)c(C(=O)/C=C/c3cccc(-c4ccccc4)c3C)c2)CC1 | 14600 nM |
| Cc1c(COc2cc(OCc3cccc(C#N)c3)c(CN3CC[C@@H](C(=O)O)C3)cc2Cl)cccc1-c1ccccc1 | 10 to 100 nM |
| CCN1CCN(Cc2cc(Cl)c(OCc3cccc(-c4ccc5c(c4)OCCO5)c3C)cc2OCc2cccc(C#N)c2)CC1 | 711 nM |
| Cc1c(COc2cc(OCc3cccc(C#N)c3)c(CN3CCC(O)C3)cc2Cl)cccc1-c1ccccc1 (stereo unspecified) | 10 to 100 nM |
| Cc1c(COc2cc(OCc3cccc(C#N)c3)c(CN[C@H](CO)C(=O)O)cc2Cl)cccc1-c1cccnc1 | 10 to 100 nM |
| Cc1c(COc2ccc3cc(CN[C@@H](CO)C(=O)O)ccc3c2)cccc1-c1ccc2c(c1)OCCO2 | > 10000 nM |
| CC(=O)N1CCN(Cc2ccc(O)c(C(=O)/C=C/c3cccc(-c4ccc5c(c4)OCCO5)c3C)c2)CC1 | > 20000 nM |
| Cc1c(COc2cc(OCc3cccc(C#N)c3)c(CN3CCCC[C@H]3C(=O)O)cc2Cl)cccc1-c1cccnc1 | > 100 nM |
| Cc1c(COc2cc(OCc3cccc(C#N)c3)c(CN3CC(C)(O)C3)cc2Cl)cccc1-c1ccc2c(c1)OCCO2 | 10 to 100 nM |
| Cc1c(COc2cc(OCc3cccc(C#N)c3)c(CNCC(=O)O)cc2Cl)cccc1-c1ccc2c(c1)OCCO2 | > 100 nM |
| Cc1c(COc2cc(OCc3cccc(C#N)c3)c(CN3CC(C(=O)O)C3)cc2Cl)cccc1-c1ccccc1 | 31.2 nM |
| Cc1c(COc2cc(OCc3cccc(C#N)c3)c(CN3C[C@@H](O)C[C@H]3C(=O)O)cc2Cl)cccc1-c1ccncc1 | > 100 nM |
| Cc1c(COc2cc(OCc3cccc(C#N)c3)c(CNCCN)cc2Cl)cccc1-c1ccc2c(c1)OCCO2 | > 100 nM |
| Cc1c(COc2cc(OCc3cccc(C#N)c3)c(CN[C@H](C(=O)O)[C@H](C)O)cc2Cl)cccc1-c1ccccc1 | 14.1 nM |
| Cc1c(COc2cc(OCc3cccc(C#N)c3)c(CN[C@@H](C(=O)O)[C@H](C)O)cc2Cl)cccc1-c1ccccc1 | 8.5 nM |
| Cc1c(COc2cc(OCc3cccc(C#N)c3)c(CN3CC(O)C3)cc2Cl)cccc1-c1ccc2c(c1)OCCO2 | 30.4 nM |
| Cc1c(COc2cc(OCc3cccc(C#N)c3)c(CN3CC[C@@H](O)C3)cc2Cl)cccc1-c1ccccc1 | 10 to 100 nM |
| CC(=O)N1CCN(Cc2cc(Cl)c(OCc3cccc(-c4ccc5c(c4)OCCO5)c3C)cc2OCc2cccc(C#N)c2)CC1 | 408 nM |
| Cc1c(COc2ccc3cc(CNC(C)(C)C(=O)O)ccc3c2)cccc1-c1ccccc1 | > 10000 nM |
| Cc1c(COc2cc(OCc3cccc(C#N)c3)c(CN3CC[C@H](C(=O)O)C3)cc2Cl)cccc1-c1ccccc1 | 10 to 100 nM |
| Cc1c(COc2cc(OCc3cccc(C#N)c3)c(CN3CC[C@H](O)C3)cc2Cl)cccc1-c1ccc2c(c1)OCCO2 | 27.5 nM |

| Compound | IC50 |
| --- | --- |
| Cc1c(COc2ccc3cc(CNCCN)ccc3c2)cccc1-c1ccccc1 | > 10000 nM |
| CC(=O)N1CCN(Cc2ccc3oc(-c4cccc(-c5ccccc5)c4C)cc(=O)c3c2)CC1 | > 10000 nM |
| CC(=O)N1CCN(Cc2ccc(O)c(C(=O)/C=C/c3cccc(-c4ccccc4)c3)c2)CC1 | > 20000 nM |
| Cc1c(COc2cc(OCc3cccc(C#N)c3)c(CN[C@H](CO)C(=O)O)cc2Cl)cccc1-c1ccncc1 | > 100 nM |
| CC(=O)N1CCN(Cc2ccc3oc(-c4cccc(-c5ccccc5)c4F)cc(=O)c3c2)CC1 | > 10000 nM |
| Cc1c(COc2cc(OCc3cccc(C#N)c3)c(CNCCO)cc2Cl)cccc1-c1ccncc1 | > 100 nM |
| Cc1c(COc2cc(OCc3cccc(C#N)c3)c(CN3CCN(C(C)C)CC3)cc2Cl)cccc1-c1ccc2c(c1)OCCO2 | > 1000 nM |
| Cc1c(COc2cc(OCc3cccc(C#N)c3)c(CN3C[C@@H](O)C[C@H]3C(=O)O)cc2Cl)cccc1-c1cncnc1 | > 100 nM |
| Cc1c(COc2cc(OCc3cccc(C#N)c3)c(CN3CC(C)(O)C3)cc2Cl)cccc1-c1ccccc1 | > 100 nM |
| Cc1c(COc2cc(OCc3cccc(C#N)c3)c(CNCCN(C)C)cc2Cl)cccc1-c1ccc2c(c1)OCCO2 | 26.3 nM |
| Cc1c(COc2cc(OCc3cccc(C#N)c3)c(CN3CC(O)C(CO)C3)cc2Cl)cccc1-c1ccc2c(c1)OCCO2 (stereo unspecified) | 16.7 nM |
| Cc1c(COc2ccc3cc(CNC(C)(C)C(=O)O)ccc3c2)cccc1-c1ccc2c(c1)OCCO2 | > 10000 nM |
| Cc1c(COc2cc(OCc3cccc(C#N)c3)c(CN3CCCC[C@H]3C(=O)O)cc2Cl)cccc1-c1ccncc1 | > 100 nM |
| COc1cc2c(c(O)c1CC=C(C)C)C(=O)C[C@@H](c1ccc(O)cc1)O2 | 96600 nM |
| Cc1c(COc2ccc3cc(CN4C[C@@H](O)C[C@H]4C(=O)O)ccc3c2)cccc1-c1ccc2c(c1)OCCO2 | > 10000 nM |
| Cc1c(/C=C/C(=O)c2cc(CN3CCNCC3)ccc2O)cccc1-c1ccccc1 | > 20000 nM |
| Cc1c(COc2cc(OCc3cccc(C#N)c3)c(CN3CCN(C(=O)OC(C)(C)C)CC3)cc2Cl)cccc1-c1ccc2c(c1)OCCO2 | > 1000 nM |
| Cc1c(COc2cc(OCc3cccc(C#N)c3)c(CN3C[C@@H](O)C[C@@H]3CO)cc2Cl)cccc1-c1ccccc1 | 10 to 100 nM |
| CC(=O)N1CCN(Cc2ccc(O)c(C(=O)/C=C/c3cccc(-c4ccccc4)c3C)c2)CC1 | 14400 nM |
| c1cc2c(cc1[C@H]1OC[C@H]3[C@@H]1CO[C@@H]3c1ccc3c(c1)OCO3)OCO2 [SESAMIN] | > 100000 nM |
| Cc1c(COc2cc(OCc3cccc(C#N)c3)c(CN3CCCC[C@@H]3C(=O)O)cc2Cl)cccc1-c1ccncc1 | > 100 nM |
| Cc1c(/C=C/C(=O)c2cc(CN3CCN(c4cccc([N+](=O)[O-])c4)CC3)ccc2O)cccc1-c1ccc2c(c1)OCCO2 | 19300 nM |
| CC(=O)NCCNCc1ccc(O)c(C(=O)/C=C/c2cccc(-c3ccccc3)c2C)c1 | 5300 nM |
| Cc1c(COc2cc(OCc3cccc(C#N)c3)c(CN[C@@H](CO)C(=O)O)cc2Cl)cccc1-c1ccncc1 | > 100 nM |
| Cc1c(COc2cc(OCc3cccc(C#N)c3)c(CN3CCN(C4CC4)CC3)cc2Cl)cccc1-c1ccc2c(c1)OCCO2 | 409 nM |
| Cc1c(COc2cc(OCc3cccc(C#N)c3)c(CN3C[C@H](O)[C@@H](F)C3)cc2Cl)cccc1-c1ccccc1 | > 100 nM |

| Compound | IC50 |
| --- | --- |
| CC(=O)N1CCN(Cc2ccc3oc(-c4cccc(-c5ccccc5)c4)cc(=O)c3c2)CC1 | > 10000 nM |
| Cc1c(COc2cc(OCc3cccc(C#N)c3)c(/C=N/C(CS)C(=O)O)cc2Cl)cccc1-c1ccccc1 (stereo unspecified) | > 100 nM |
| Cc1c(COc2cc(OCc3cccc(C#N)c3)c(CN3CCNCC3)cc2Cl)cccc1-c1ccc2c(c1)OCCO2 | 233 nM |
| Cc1c(-c2ccccc2)cccc1-c1cc(=O)c2cc(CN3CCNCC3)ccc2o1 | > 10000 nM |
| Cc1c(COc2cc(OCc3cccc(C#N)c3)c(CN[C@H](C(=O)O)[C@@H](C)O)cc2Cl)cccc1-c1ccccc1 | 9 nM |
| CC(=O)N1CCN(Cc2ccc(O)c(C(=O)/C=C/c3cccc(-c4ccccc4)c3F)c2)CC1 | > 20000 nM |
| Cc1c(COc2cc(OCc3cccc(C#N)c3)c(CN3CCN(C)CC3)cc2Cl)cccc1-c1ccc2c(c1)OCCO2 | 225 nM |
| Cc1c(COc2cc(OCc3cccc(C#N)c3)c(CN3C[C@H](O)[C@@H](F)C3)cc2Cl)cccc1-c1ccc2c(c1)OCCO2 | > 100 nM |
| Cc1c(COc2cc(OCc3cccc(C#N)c3)c(CN[C@@H](C(=O)O)[C@H](C)O)cc2Cl)cccc1-c1ccncc1 | > 100 nM |
| Cc1c(COc2cc(OCc3cccc(C#N)c3)c(CNCCNC(=O)OC(C)(C)C)cc2Cl)cccc1-c1ccc2c(c1)OCCO2 | 55.9 nM |
| Cc1c(COc2cc(OCc3cccc(C#N)c3)c(CN3CCCC[C@H]3C(=O)O)cc2Cl)cccc1-c1cncnc1 | > 100 nM |
| Cc1c(COc2cc(OCc3cccc(C#N)c3)c(CNCC(=O)O)cc2Cl)cccc1-c1ccccc1 | 10 to 100 nM |
| Cc1c(COc2ccc3cc(CN4C[C@@H](O)C[C@H]4C(=O)O)ccc3c2)cccc1-c1ccccc1 | > 10000 nM |
| Cc1c(COc2cc(OCc3cccc(C#N)c3)c(CN3CC[C@@H](O)C3)cc2Cl)cccc1-c1ccc2c(c1)OCCO2 | 14.9 nM |
| Cc1c(-c2ccccc2)cccc1-c1cc(=O)c2cc(CN3CCN(CC4CC4)CC3)ccc2o1 | > 10000 nM |
| Cc1c(COc2cc(OCc3cccc(C#N)c3)c(CNC(C)(C)C(=O)O)cc2Cl)cccc1-c1ccc2c(c1)OCCO2 | 25.2 nM |
| Cc1c(COc2cc(OCc3cccc(C#N)c3)c(CN3CCCCC3C(=O)O)cc2Cl)cccc1-c1ccncc1 (stereo unspecified) | > 100 nM |
| O=c1cc(-c2ccc(O)cc2)oc2cc(O[C@@H]3O[C@H](CO)[C@@H](O)[C@H](O)[C@H]3O[C@@H]3OC[C@](O)(CO)[C@H]3O)cc(O)c12 [APIIN] | > 100000 nM |
| CC(=O)NCCNCc1ccc2cc(OCc3cccc(-c4ccccc4)c3C)ccc2c1 | > 10000 nM |
| Cc1c(COc2cc(OCc3cccc(C#N)c3)c(CN3CC(C(=O)O)C3)cc2Cl)cccc1-c1ccc2c(c1)OCCO2 | 14.5 nM |
| CCN1CCN(Cc2ccc3oc(-c4cccc(-c5ccccc5)c4C)cc(=O)c3c2)CC1 | > 10000 nM |
| Cc1c(COc2cc(OCc3cccc(C#N)c3)c(CNC(C)(C)C(=O)O)cc2Cl)cccc1-c1cccnc1 | 10 to 100 nM |
| Cc1c(COc2cc(OCc3cccc(C#N)c3)c(CN3C[C@@H](O)C[C@H]3C(=O)O)cc2Cl)cccc1-c1cccnc1 | > 100 nM |
| Cc1c(/C=C/C(=O)c2cc(CN3CCN(C4CC4)CC3)ccc2O)cccc1-c1ccccc1 | > 20000 nM |
| Cc1c(COc2cc(OCc3cccc(C#N)c3)c(CNCCN(C)C)cc2Cl)cccc1-c1ccccc1 | 10 to 100 nM |
| Cc1c(COc2cc(OCc3cccc(C#N)c3)c(CN3CC[C@@H](C(=O)O)C3)cc2Cl)cccc1-c1ccc2c(c1)OCCO2 | 15.2 nM |
